Entries after “also recorded” stand apart in the source; their conditions may differ.
Key:
[1] = Tolerability of intravesical RTX in healthy cats (physical exam, blood count, chemistry); assay type: in vivo, cat; details: healthy cats, 5, 25 or 50 mcg intravesical, during or post administration
Experimental: To examine the effect of intravesical instillation of RTX on the bladder, 6 healthy cats, between the 2-5 years of age, were treated with either 5 (low dose), 25 (mid dose) or 50 mcg (high dose) of RTX (volume was 25 ml; concentrations were 0.2, 1, and 2 mcg/ml). These doses are considered equivalent to administration of 20, 100, or 200 mcg in a human with a volume of 100 ml. A seventh cat received saline only and served as the control. The bladders of the anesthetized cats were emptied and then flushed with sterile saline via a foley urinary catheter. Once the saline was removed, the treatment with RTX (test cats) or saline alone (control cat) was administered over 60 seconds and left in the bladder for 20 minutes.
A physical exam, complete blood count and chemistry parameters were performed on day 0, 7, and 14. Complete blood count and chemistry parameters were analyzed at the Clinical Pathology Laboratory at the University of Georgia. Food consumption and signs of abnormal urination were monitored through the study period.

[2] = tested on: S1 and S2 DRG neurons expressing CGRP and SP; assay: CGRP and SP positive neurons in S1 and S2 dorsal root ganglia of cats (IHC); assay type: in vivo, cat
Experimental: At day 14 the cats were anesthetized and perfused with saline followed by 10% formalin. After confirmation of successful euthanasia, lumbar and sacral segments of the spinal cord with corresponding dorsal spinal ganglia, the urinary bladder and urethra were harvested and tissues were prepared for immunohistochemistry.
Previous studies have shown that TRPV1-immunoreactive axons co-express Calcitonin gene-related peptide (CGRP) and substance P (SP) (See, e.g., Sharrad et al. (2015) Neurosci. Lett., 599: 164-171; Bae et al. (2004) J. Comp. Neurol. 478: 62-71). Since feline bladder connective tissue, smooth muscle, and cell bodies of S2 DRG express CGRP+ and SP+ axons, expression of CGRP and SP were used in these studies to identify the majority of TRPV1 axons innervating the cat bladder and TRPV1+ cell bodies in cat S2 dorsal root ganglia (DRG).
The percent of cell bodies from S1 and S2 DRG expressing SP and CGRP from feline bladders after intravesical application of either control (saline) or RTX (5, 25 or 50 mcg) was also examined using immunohistochemistry and confocal laser microscopy as described above. […] CGRP positive cell bodies were small to medium-size.

[3] = tested on: CGRP and SP nerve fibers innervating dog bladder; assay: Density of CGRP and SP axons in canine bladder (IHC, confocal); assay type: in vivo; details: dogs
Experimental: Canine bladders from a healthy dog (control) and from dogs with intravesical application of resiniferatoxin (RTX) at 2 different doses (25 mcg and 250 mcg) were prepared for immunohistochemistry and confocal laser microscopy to quantify the axons expressing substance P (SP) and calcitonin-gene related peptide (CGRP). Confocal images were obtained at 40× magnification using a Carl Zeiss scanning confocal laser microscope (model LSM 800, Jena, Germany) with Z-stack function.

[4] = tested on: dogs with bladder cancer; assay: Lower urinary tract symptom scale in dogs with bladder cancer (Example D); assay type: in vivo, dog; details: 1.0 or 2.0 ug/ml intravesical
Experimental: (§1) Dogs with bladder cancer were treated with RTX as follows. Under general anesthesia, RTX was infused directly into the bladder using a foley catheter. RTX remained in the bladder for 30 minutes before removal.
6 dogs were enrolled and treated at the following doses: • <10 kg: RTX 25 ug diluted in 24 ml NaCl (1.0 ug/ml solution) • >10 kg: RTX 50 ug diluted in 48 ml NaCl (1.0 ug/ml solution)
7 dogs were then enrolled and treated at the following doses: • <10 kg: RTX 25 ug diluted in 11.5 ml NaCl (2.0 ug/ml solution) • 10-25 kg: RTX 50 ug diluted in 23 ml NaCl (2.0 ug/ml solution) • >25 kg: RTX 100 ug diluted in 46 ml NaCl (2.0 ug/ml solution)
Three dogs were treated twice with at least 28 days between treatments. Two dogs were lost to follow-up after day 0.
The primary endpoint was assessment of improvement of lower urinary tract signs with a 4-point lower urinary tract symptom scale (character of urination/degree of straining; frequency of urination (daytime); frequency of urination (nighttime); and blood in urine). The secondary endpoints were anti-cancer effect, as measured by bladder ultrasound, and quality of life.

[5] = Adverse events in dogs with bladder cancer (Example D); assay type: in vivo, dog
Experimental: as §1

What does the source list for `C=C(C)[C@]12C[C@@H](C)[C@@]34O[C@](Cc5ccccc5)(O[C@@H]1[C@@H]3C=C(COC(=O)Cc1ccc(O)c(OC)c1)C[C@]1(O)C(=O)C(C)=C[C@@H]41)O2` [RTX, resiniferatoxin]?
Tolerability / clinical adverse effects [1]: well tolerated with no clinical adverse effects noted; number of neurons (cell bodies) expressing CGRP and SP in S2 DRG ([2]; cat, single 25 mcg intravesical, vs saline control): does not decrease; also recorded: did not modify; percentage of CGRP+ neurons in S1 DRG and S2 DRG ([2]; cats, 5, 25 and 50 mcg, 14 days post treatment, vs control): did not affect; percentage of cell bodies expressing CGRP and SP in S1 and S2 DRG ([2]; cats, 5, 25 or 50 mcg intravesical, vs control): did not affect; percentage of SP+ neurons in S1 DRG and S2 DRG ([2]; cats, 14 days post-treatment): comparable to the control; CGRP and SP axons innervating the bladder body ([3]; 25 mcg and 250 mcg intravesical, vs control dog): drastic reduction; density of CGRP and SP nerve fibers innervating the body, trigon, and fundus ([3]; 25 mcg and 250 mcg, vs control tissue): reduced; effect of 250 mcg in reducing density of CGRP and SP compared with 25 mcg ([3]; 250 mcg vs 25 mcg): greater effect; Improvement of at Least 1 Score, percent of dogs ([4]; Day 7, n = 11): 54.5%; Improvement of at Least 2 Scores, percent of dogs ([4]; Day 7, n = 11): 36.4%; Improvement of at least 1 score (lower urinary tract symptom scale), number of dogs ([4]; Day 7, n = 11): 6; Improvement of at least 2 scores (lower urinary tract symptom scale), number of dogs ([4]; Day 7, n = 11): 4; Improvement of at Least 1 Score, percent of dogs ([4]; Day 14, n = 11): 72.7%; Improvement of at Least 2 Scores, percent of dogs ([4]; Day 14, n = 11): 45.5%; Improvement of at least 1 score (lower urinary tract symptom scale), number of dogs ([4]; Day 14, n = 11): 8; Improvement of at least 2 scores (lower urinary tract symptom scale), number of dogs ([4]; Day 14, n = 11): 5; Improvement of at Least 1 Score, percent of dogs ([4]; Day 28, n = 8): 75.0%; Improvement of at Least 2 Scores, percent of dogs ([4]; Day 28, n = 8): 50.0%; Improvement of at least 1 score (lower urinary tract symptom scale), number of dogs ([4]; Day 28, n = 8): 6; Improvement of at least 2 scores (lower urinary tract symptom scale), number of dogs ([4]; Day 28, n = 8): 4; Improvement of at Least 1 Score, percent of dogs ([4]; Day 56, n = 5): 100%; Improvement of at Least 2 Scores, percent of dogs ([4]; Day 56, n = 5): 60.0%; Improvement of at least 1 score (lower urinary tract symptom scale), number of dogs ([4]; Day 56, n = 5): 5; Improvement of at least 2 scores (lower urinary tract symptom scale), number of dogs ([4]; Day 56, n = 5): 3; Improvement of at Least 1 Score, percent of dogs ([4]; Day 84, n = 3): 100%; Improvement of at Least 2 Scores, percent of dogs ([4]; Day 84, n = 3): 66.7%; Improvement of at least 1 score (lower urinary tract symptom scale), number of dogs ([4]; Day 84, n = 3): 3; Improvement of at least 2 scores (lower urinary tract symptom scale), number of dogs ([4]; Day 84, n = 3): 2; Adverse events considered possibly attributable to RTX ([5]; Case 03-01, 25 ug (2.8 ug/kg), Day 0): Bladder spasm, urinating around catheter (Grade 1); Adverse events considered possibly attributable to RTX ([5]; Case 03-02, 50 ug (2.6 ug/kg)): none; Adverse events considered possibly attributable to RTX ([5]; Case 41-02, 50 ug (1.3 ug/kg) dosed twice, Day 1): crying out after urination (Grade 1); Adverse events considered possibly attributable to RTX ([5]; Case 47-02, 50 ug (2.0 ug/kg), Day 0): diarrhea, vomiting, hyperoxia (Grade 1); dose-limiting toxicity ([5]; dogs with bladder cancer): No dose-limiting toxicity was observed; adverse events ([5]; dogs with bladder cancer, 25-100 ug intravesical): minimal, mild, and transient; grade of adverse events ([5]; dogs with bladder cancer, all adverse events): grade 1; Tolerability ([5]; dogs with bladder cancer, all tested doses incl. maximum 50 ug or 2.8 ug/kg dosed twice 28 days apart): tolerated at all tested doses
